Experiments:
ESBL KPN = test: Antibiotic resistance screening (MIC); assay type: cell-based, Klebsiella pneumoniae; details: for Antibiotic resistance characterization (R/S/I): 24 h
Method: (§1) The clinical isolates were obtained from the lab of Nancy Madinger at the University of Colorado Anschutz campus. Clinical isolates were grown in Cation Adjusted Mueller–Hinton broth (CAMHB) (Becton, Dickinson and Company 212322) at 37 °C with 225 rpm shaking or on solid CAMHB with 1.5% agar at 37 °C. Clinical isolates were maintained as freezer stocks in […], 40% glycerol at −80 °C. Freezer stocks were streaked out onto solid CAMHB and incubated for 16 h to produce single colonies prior to experiments. For each biological replicate, a single colony was picked from solid media and grown for 16 h in liquid CAMHB prior to experiments. Non-clinical isolates, such as E. coli MG1655 (ATCC700926) and Salmonella enterica serovar Typhimurium SL1344, expressing GFP from the chromosome (rpsm::gfp)[54], were cultured in liquid 2% lysogeny broth (LB) or on 2% LB with 1.5% agar for solid plates. SL1344 cultures were supplemented with 30 µg/mL streptomycin and SL1344 strains containing plasmids pFPV (target STm) or pRG1 modified with a lacIq promotor (SL1344-holin) were supplemented with 100 µg/mL ampicillin. Freezer stocks were stored in 60% LB broth, 40% glycerol at −80 °C. Freezer stocks were streaked out onto solid LB and incubated for 16 h to produce single colonies before experiments. For biological replicates, single colonies were started in liquid LB and grown for 16 h prior to experiments. E. coli MG1655 PNA growth experiments were carried out in M9 media (1x M9 minimal media salts solution (MP Biomedicals), 2.0 mM MgSO4, and 0.1 mM CaCl2 in sterile water) with 0.4% glucose.
Sensitive/resistant breakpoints were taken from the 2016–2017 Clinical & Laboratory Standards Institute report[41] (Table S1). Liquid cultures of the clinical strains were diluted to a 0.5 McFarland standard and added to the respective antibiotic test condition. […] Strains were “sensitive” if the MIC was equal to or below the sensitive-breakpoint concentration, “resistant” if the MIC was greater than or equal to the resistant-breakpoint concentration, and “intermediate” if the MIC was in-between.

MDR STm = assay type: cell-based, Salmonella enterica serovar Typhimurium; details: concentration range at which 90% of growth inhibition occurs at 24 hours, Table S2
Method: as §1, with “For biological replicates, single colonies were started in liquid LB and grown for 16 h prior to experiments. E. coli MG1655 PNA growth experiments were carried out in M9 media (1x M9 minimal media salts solution (MP Biomedicals), 2.0 mM MgSO4, and 0.1 mM CaCl2 in sterile water) with 0.4% glucose.” left out

MDR E. coli = assay type: cell-based, Escherichia coli; details: concentration range at which 90% of growth inhibition occurs at 24 hours, Table S2
Method: as §1, with “For biological replicates, single colonies were started in liquid LB and grown for 16 h prior to experiments. E. coli MG1655 PNA growth experiments were carried out in M9 media (1x M9 minimal media salts solution (MP Biomedicals), 2.0 mM MgSO4, and 0.1 mM CaCl2 in sterile water) with 0.4% glucose.” left out

CRE E. coli = assay type: cell-based, Escherichia coli; details: concentration range at which 90% of growth inhibition occurs at 24 hours, Table S2
Method: as §1, with “For biological replicates, single colonies were started in liquid LB and grown for 16 h prior to experiments. E. coli MG1655 PNA growth experiments were carried out in M9 media (1x M9 minimal media salts solution (MP Biomedicals), 2.0 mM MgSO4, and 0.1 mM CaCl2 in sterile water) with 0.4% glucose.” left out

NDM-1 KPN = assay type: cell-based, Klebsiella pneumoniae; details: concentration range at which 90% of growth inhibition occurs at 24 hours, Table S2
Method: as §1, with “For biological replicates, single colonies were started in liquid LB and grown for 16 h prior to experiments. E. coli MG1655 PNA growth experiments were carried out in M9 media (1x M9 minimal media salts solution (MP Biomedicals), 2.0 mM MgSO4, and 0.1 mM CaCl2 in sterile water) with 0.4% glucose.” left out

CC1(C)S[C@@H]2[C@H](NC(=O)[C@H](N)c3ccccc3)C(=O)N2[C@H]1C(=O)O [AMP, ampicillin]
Antibiotic resistance characterization (R/S/I) (ESBL KPN): R

O=C(N[C@H](CO)[C@H](O)c1ccc([N+](=O)[O-])cc1)C(Cl)Cl [CHL, chloramphenicol]
Antibiotic resistance characterization (R/S/I) (ESBL KPN): S

NC[C@H]1O[C@H](O[C@H]2[C@H](O)[C@@H](O[C@H]3O[C@H](CO)[C@@H](O)[C@H](N)[C@H]3O)[C@H](N)C[C@@H]2N)[C@H](O)[C@@H](O)[C@@H]1O [KAN, kanamycin]
Antibiotic MIC90 (ESBL KPN; ESBL KPN, concentration range at which 90% of growth inhibition occurs at 24 hours, Table S2): > 64 µg/mL | Antibiotic MIC90 (MDR STm): < 16 µg/mL | Antibiotic MIC90 (MDR E. coli): < 16 µg/mL | Antibiotic MIC90 (CRE E. coli): > 64 µg/mL | Antibiotic MIC90 (NDM-1 KPN): > 64 µg/mL

CCn1cc(C(=O)O)c(=O)c2ccc(C)nc21 [NXA, nalidixic acid]
Antibiotic resistance characterization (R/S/I) (ESBL KPN): R
